Where “and” joins values, the source holds several entries; their conditions need not be identical. Identical values can stand only once.
Tests used:
[1] = molecular target: T1, CHOK1 cells engineered to overexpress human CCR2 (Homo sapiens, UniProt P41597); experiment: Antibody dependent cellular cytotoxicity (ADCC) reporter assay (Example 199); format: cell-based; conditions: with anti-cotinine antibody SEQ ID NO: 11/12, CHOK1-human CCR2 target cells, Jurkat FcγRIIIa NFAT-luciferase reporter cells, 12-18 hours
T1 construct: expressed in transfected cells; host or cells: CHOK1 cells
How it was run: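 CHOK1-hCCR2 target cells are co-incubated for 12–18 h with Jurkat FcγRIIIa/NFAT-luciferase reporter cells, ARM compound (1 pM–10 μM) and anti-cotinine antibody with a DE-mutant human IgG1 Fc (0.01–200 μg/mL). Luminescence is expressed as signal:background against no-compound wells; EC50 comes from nonlinear fit and is reported as pEC50, averaged across runs.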

[2] = molecular target: Anti-cotinine antibody (SEQ ID NO: 11 / SEQ ID NO: 12, rabbit variable region with human IgG1 Fc domain); experiment: Binding of anti-cotinine antibody to ARM compounds by SPR, Biacore T200, 37° C. (Example 202); conditions: pH 7.4, rabbit variable region/human IgG1 Fc antibody captured on protein A
How it was run: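 Antibody captured on protein A chip. Compounds injected (3-fold, 5-point, top 200 nM) at 100 μL/min with 200 s association and 2000 s dissociation, at 37° C. in HEPES pH 7.4 buffer with 1% DMSO. Double-referenced data fit to 1:1 kinetics. Kd = koff/kon, reported as pKd, averaged over runs.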

[3] = test system: endogenous target monocytes in human PBMC; experiment: PBMC ex vivo monocyte depletion flow cytometry assay (Example 200); format: cell-based; conditions: with anti-cotinine antibody SEQ ID NO: 11/12, 18-24 hours, read-out: Ex Vivo Depletion Assay pEC50 (converted)
Experimental: A human PBMC (peripheral blood mononuclear cells) monocyte depletion flow cytometry assay was developed to screen compounds in a 384-well plate format. This assay incorporated endogenous natural killer cells to deplete endogenous target monocytes.
To screen compounds in the human PBMC monocyte depletion flow cytometry assay, 11-point dose-response curves were made from 1 mM stocks in neat DMSO by serially diluting an ARM compound of Formula (I) four-fold into a 384-well plate row-wise. These serially diluted compounds were then stamped into a flat bottom polypropylene 384-well plate (Greiner Bio-One) at 100 nL/well. Fifty microliters of 30 μg/mL anti-cotinine antibody having a heavy chain sequence of SEQ ID NO: 11 and a light chain sequence of SEQ ID NO: 12 (rabbit variable region with human IgG1 Fc domain containing a DE mutation (S239D/1332E)) that had been diluted in assay medium (RPMI 1640 (Gibco) containing 10% fetal bovine serum (Gibco), 1% Glutamax (Gibco) and 1% sodium pyruvate (Corning) was added to the wells of the plate. The plate was centrifuged for 1 min at 500 rpm (revolutions per minute) and then shaken for 5 min at room temperature. The plate was incubated for 15 minutes at 37° C./5% CO2.
Frozen PBMC cells (HemaCare BioResearch) were thawed and centrifuged at 1,200 rpm for 4 minutes. The cells were diluted to a cell density of 2×10^6 cells/mL in assay medium. Fifty microliters of the diluted cells were added to the wells of the plate. The plate was centrifuged for 1 min at 500 rpm and incubated for 18-24 hours at 37° C./5% CO2.
After 18-24 hours incubation, 2 μL of 6.25 μg human FC block (BD Pharmingen) that was diluted in assay medium was added to the wells of the plate. The plate was centrifuged for 1 minute at 500 rpm and then incubated at room temperature for 15 minutes. Five microliters of 750 nM Helix NP NIR (Biolegend) that had been diluted in assay medium was added to the wells of the plate. Nine microliters of antibody cocktail containing 1/5 diluted fluorescein isothiocyanate (FITC) labeled anti-CD45 antibody (Beckman Coulter), PC7 labeled anti-CD14 antibody (Beckman Coulter) and phycoerythrin (PE) anti-CD4 antibody (Beckman Coulter) was then added to the wells of the plate. The plate was centrifuged for 1 min at 500 rpm and incubated for 30 minutes at 4-8° C. Samples from the plate were run on BD FACS Canto II flow cytometer and data was analyzed using FlowJo software.
ARMs compounds of Formula (I) of the invention were tested for the ability to deplete monocytes in the above assay in one or more experimental runs and the results are shown in Table 3 below. Potency of the compounds of the invention is reported as a pEC50 value. The pEC50 value is the negative log of the EC50 value, wherein the EC50 value is the half maximal effective concentration measured in molar (M). For compounds tested in more than one experimental run, the pEC50 value is reported as an average or as the individual values measured

[4] = molecular target: human alpha1 nicotinic acetylcholine (nACh) receptor (Homo sapiens, UniProt P02708+Q07001); experiment: Nicotinic acetylcholine receptor antagonism assay, IONFlux automated patch clamp (Example 203); format: cell-based; conditions: for Emax at 10 µM: maximum percentage antagonism at maximum concentration tested 10 μM, read-out: Maximum Response (%); for IC50: nAChR antagonism, ACh stimulated, patch clamp
Chain of human alpha1 nicotinic acetylcholine (nACh) receptor (P02708 21-457): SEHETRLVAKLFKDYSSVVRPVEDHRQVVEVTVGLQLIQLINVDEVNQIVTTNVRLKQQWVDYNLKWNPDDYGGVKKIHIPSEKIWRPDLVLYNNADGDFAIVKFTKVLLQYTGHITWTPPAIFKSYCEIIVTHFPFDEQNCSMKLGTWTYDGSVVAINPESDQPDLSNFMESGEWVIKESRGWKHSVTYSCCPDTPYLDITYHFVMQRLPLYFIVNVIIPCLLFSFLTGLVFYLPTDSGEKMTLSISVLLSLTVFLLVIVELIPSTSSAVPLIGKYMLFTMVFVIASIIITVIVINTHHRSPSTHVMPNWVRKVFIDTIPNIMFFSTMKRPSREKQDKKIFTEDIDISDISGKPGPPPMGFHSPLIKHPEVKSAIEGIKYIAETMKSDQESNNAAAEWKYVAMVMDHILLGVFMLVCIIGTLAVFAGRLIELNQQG
Chain of human alpha1 nicotinic acetylcholine (nACh) receptor (P11230 24-501 partner): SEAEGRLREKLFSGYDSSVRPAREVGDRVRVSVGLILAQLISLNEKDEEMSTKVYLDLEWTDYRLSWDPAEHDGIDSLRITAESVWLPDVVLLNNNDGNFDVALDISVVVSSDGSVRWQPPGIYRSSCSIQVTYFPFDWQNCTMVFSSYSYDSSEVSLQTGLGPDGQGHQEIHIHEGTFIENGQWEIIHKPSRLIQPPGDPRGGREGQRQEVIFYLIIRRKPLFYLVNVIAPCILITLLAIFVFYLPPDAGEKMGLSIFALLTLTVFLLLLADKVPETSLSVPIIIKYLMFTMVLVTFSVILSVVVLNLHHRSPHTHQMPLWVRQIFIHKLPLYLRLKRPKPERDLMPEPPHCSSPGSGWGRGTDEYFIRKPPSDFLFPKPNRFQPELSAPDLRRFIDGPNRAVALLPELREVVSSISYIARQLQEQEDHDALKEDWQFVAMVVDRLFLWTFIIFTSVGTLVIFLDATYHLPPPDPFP
Chain of human alpha1 nicotinic acetylcholine (nACh) receptor (Q07001 22-517): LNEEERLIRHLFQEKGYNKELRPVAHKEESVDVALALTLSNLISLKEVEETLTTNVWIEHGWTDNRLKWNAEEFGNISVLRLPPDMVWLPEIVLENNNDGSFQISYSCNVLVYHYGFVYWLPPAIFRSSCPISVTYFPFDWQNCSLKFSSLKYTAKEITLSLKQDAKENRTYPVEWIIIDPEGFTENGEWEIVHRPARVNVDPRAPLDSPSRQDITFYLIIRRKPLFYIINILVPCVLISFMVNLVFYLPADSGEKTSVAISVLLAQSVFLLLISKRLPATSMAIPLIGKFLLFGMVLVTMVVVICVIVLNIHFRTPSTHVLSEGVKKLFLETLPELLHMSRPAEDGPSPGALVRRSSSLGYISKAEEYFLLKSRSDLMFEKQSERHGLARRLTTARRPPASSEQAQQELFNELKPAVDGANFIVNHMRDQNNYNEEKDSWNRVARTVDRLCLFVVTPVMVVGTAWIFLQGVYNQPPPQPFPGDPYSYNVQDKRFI
How it was run: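 Human α1 nAChR-expressing cells were preincubated with compound (top 10 μM or 100 μM), then stimulated with 10 mM ACh; peak currents were recorded by IONFlux automated patch clamp. Percent inhibition versus ACh-alone control was vehicle- and rundown-corrected, then fitted to give IC50, with maximal antagonism at the top concentration; recordings with control current <500 pA were excluded.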

[5] = test system: CCR2 expressing cells (CD11b+Ly6c+ Hi) in peripheral blood; experiment: In vivo depletion assay, flow cytometry of peripheral blood (Example 201); design: species or system Human CCR2 (hCCR2) knock-in mice (C57 background); conditions: hCCR2 knock-in mice; IV 0.1 mpk compound + 10 mpk anti-cotinine antibody (SEQ ID NO: 13/14); peripheral blood at 48 hr
Experimental: Stock solution preparation: Stock solutions of compounds of Formula (I) were prepared at 20 mg/mL and 100 mg/mL in DMSO for PK/PD and dose tolerability studies respectively. Stock solutions were stored at −20° C. until further usage.
Formulations preparation: On the day of experiment, the stock solution of the compound of Formula (I) was removed from storage at −20° C. and thawed at room temperature. Anti-cotinine antibody having a heavy chain sequence of SEQ ID NO: 13 and a light chain sequence of SEQ ID NO: 14 (rabbit variable region sequence with mouse IgG2a Fc domain), if required was removed from storage at −80° C. and thawed at room temperature. Antibody vials were immediately transferred into wet ice after thawing. Compounds of Formula (I) were further diluted in DMSO as per experimental requirements.
Formulation composition: The formulation composition was Saline:DMSO:PBS. Saline was added based on the quantity required and then stock solution of the compound of Formula (I) prepared in DMSO, followed by addition of antibody in PBS. Formulations were incubated at room temperature for 30 minutes before administration to the mouse. DMSO was used at 1 to 2% (v/v) in the final formulation.
After bleeding, each mouse was sacrificed by cervical dislocation.
CCR2 depletion in peripheral blood was determined by flow cytometry. Briefly, peripheral blood was collected from all animals at the end of study termination and processed. Blood samples were lysed using 1× RBC Lysis buffer and the resulting cell pellet was washed twice in FACS buffer (HBSS containing 5% FBS). Cells were subjected to Fc blocking using mouse Fc block from Biolegend (Trustain, anti-mouse CD16/32, Cat: 101319) to block non-specific binding followed by surface staining for immune markers (CD45, CD3, CD11b, Ly6C, human CCR2). Surface staining was done for 30 minutes in ice and cells were washed twice to remove unbound antibodies. Cells were stained with 7AAD to determine viability and acquired on BD FACSVerse flow cytometer. Appropriate FMO controls and single-color controls were included in the experiment for gating and compensation respectively.
Percent depletion of CD11b+Ly6c+ Hi cells and CCR2 expression for the different treatment groups was determined.

| Compound | pKd of Antibody for ARM Compound of Formula (I) [2] | EC50 [3] [nM] | % Depletion of CCR2 expressing cells [5] [%] | also measured |
| --- | --- | --- | --- | --- |
| CN1C(=O)C[C@H](C(=O)NCCCOCCCNC(=O)CCCC(=O)NC2CCC(C(=O)N[C@@H]3C[C@H](NC(C)(C)C)CC[C@@H]3N3CC[C@H](Nc4ncnc5ccc(C(F)(F)F)cc45)C3=O)CC2)[C@H]1c1cccnc1 (some centres unmarked) [Example 22] | 9.2495 | 0.631 |  | ADCC Reporter Assay pEC50 [1]: 9 and 9.3 |
| CC(C)N(C)[C@@H]1CCC(N2CC[C@H](Nc3ncnc4ccc(C(F)(F)F)cc34)C2=O)[C@H](NC(=O)CCOCCOCCOCCOCCOCCNC(=O)[C@H]2CC(=O)N(C)[C@@H]2c2cccnc2)C1 (some centres unmarked) [Example 40] | 9.4525 | 5.01 |  | Emax at 10 µM [4]: 24.7%; IC50 [4]: > 10000 nM |
| CC(C)N(CCOCCOCCC(=O)N[C@H]1CC[C@@H](C(=O)N[C@@H]2C[C@H](N(C)C(C)C)CC[C@@H]2N2CC[C@H](Nc3ncnc4ccc(C(F)(F)F)cc34)C2=O)CC1)C(=O)CCNC(=O)[C@H]1CC(=O)N(C)[C@@H]1c1ccccc1 [Example 178] |  | 0.398 |  |  |
| CC(C)N(C)[C@@H]1CC[C@H](N2CC[C@H](Nc3ncnc4ccc(C(F)(F)F)cc34)C2=O)[C@H](NC(=O)C2CCN(C3CCN(C(=O)CCCCCCCNC(=O)[C@@H]4CC(=O)N(C)[C@H]4c4cccnc4)CC3)CC2)C1 [Example 154, N-((1R,2S,5R)-5-(Isopropyl(methyl)amino)-2-((S)-2-oxo-3-((6-(trifluoromethyl)quinazolin-4-yl)amino)pyrrolidin-1-yl)cyclohexyl)-1′-(8-((2R,3R)-1-methyl-5-oxo-2-(pyridin-3-yl)pyrrolidine-3-carboxamido)octanoyl)-[1,4′-bipiperidine]-4-carboxamide] |  | 0.501 |  | EC50 ([1]; read-out: ADCC Reporter Assay pEC50 (converted)): 2.51 nM |
| CC(C)N(C)[C@@H]1CCC(N2CC[C@H](Nc3ncnc4ccc(C(F)(F)F)cc34)C2=O)[C@H](NC(=O)CCOCCOCCOCCOCCOCCOCCNC(=O)[C@H]2CC(=O)N(C)[C@@H]2c2cccnc2)C1 (some centres unmarked) [Example 41] | 9.3615 | 2.51 |  | Emax at 10 µM [4]: 20.1%; IC50 [4]: > 10000 nM |
| CC(C)N(C)[C@@H]1CCC(N2CC[C@H](Nc3ncnc4ccc(C(F)(F)F)cc34)C2=O)[C@H](NC(=O)CCOCCOCCOCCOCCNC(=O)[C@H]2CC(=O)N(C)[C@@H]2c2cccnc2)C1 (some centres unmarked) [Example 39] |  | 2510 |  |  |
| CC(C)N(C)[C@@H]1CC[C@H](N2CC[C@H](Nc3ncnc4ccc(C(F)(F)F)cc34)C2=O)[C@H](NC(=O)C2CCC(N3CCC(S(=O)(=O)NCCCCCCNC(=O)[C@H]4CC(=O)N(C)[C@@H]4c4cccnc4)CC3)CC2)C1 (single isomer, unassigned) [compound 149] |  | 0.251 |  |  |
| CC(C)N(C)[C@@H]1CC[C@H](N2CC[C@H](Nc3ncnc4ccc(C(F)(F)F)cc34)C2=O)[C@H](NC2CCN(C(=O)CCOCCOCCOCCOCCNC(=O)[C@H]3CC(=O)N(C)[C@@H]3c3cccnc3)CC2)C1 [Example 69] | 9.321 | 1.58 | 98.59 |  |
| CC(C)N(C)[C@@H]1CC[C@H](N2CC[C@H](Nc3ncnc4ccc(C(F)(F)F)cc34)C2=O)[C@H](NC(=O)[C@H]2CC[C@H](N3CCN(S(=O)(=O)C4CCN(C(=O)[C@H](C)NC(=O)[C@H]5CC(=O)N(C)[C@@H]5c5cccnc5)CC4)CC3)CC2)C1 [Example 70, (2S,3S)-N-((S)-1-(4-((4-((1R,4S)-4-(((1R,2S,5R)-5-(isopropyl(methyl)amino)-2-((S)-2-oxo-3-((6-(trifluoromethyl)quinazolin-4-yl)amino)pyrrolidin-1-yl)cyclohexyl)carbamoyl)cyclohexyl)piperazin-1-yl)sulfonyl)piperidin-1-yl)-1-oxopropan-2-yl)-1-methyl-5-oxo-2-(pyridin-3-yl)pyrrolidine-3-carboxamide] |  | 0.1 | 30.51 |  |
| CC(C)N(C)[C@@H]1CC[C@H](N2CC[C@H](Nc3ncnc4ccc(C(F)(F)F)cc34)C2=O)[C@H](NC(=O)[C@H]2CC[C@@H](N3CCN(S(=O)(=O)C4CCN(C(=O)[C@H](C)NC(=O)[C@H]5CC(=O)N(C)[C@@H]5c5cccnc5)CC4)CC3)CC2)C1 [compound 71] |  | 0.794 | 35.25 |  |

— patent US20250136722A1, “CYTOTOXICITY TARGETING CHIMERAS” (GLAXOSMITHKLINE INTELLECTUAL PROPERTY DEVELOPMENT LIMITED, priority 2021, published 2025)
